The text below walks through data of ChEMBL document CHEMBL1201862, “PubChem BioAssay data set” (2004).

SMILES strings stand for the structures.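 Step 1: Grow cells in 96-well plates. Step 2: Expose to compound for 48 hours at 5 concentrations. Step 3: Interpolate endpoints linearly; if unreached, use highest concentration. GI50 is the concentration that inhibits growth by half.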 Calls of active or inactive are those of the source. Rule as the data show it: active = GI50 up to about 1.1 µM and inactive = higher.

Assay in all cases: inhibition of tumour cell growth, NCI panel, 48 h
The subject of assay [1] is K562.
Assay [2] has as its system UACC-257.
The subject of assay [3] is RPMI-8226.
The subject of assay [4] is HL-60.
In assay [5] the test system is NCI-H226.
Assay [6] has as its system OVCAR-4.
Assay [7] deals with KM12.
Assay [8] relates to 786-0.
Assay [9] deals with UO-31.
In assay [10] the test system is HCT-15.
Assay [11] deals with OVCAR-5.
Assay [12] concerns TK-10.
The subject of assay [13] is COLO 205.
Assay [14] deals with SNB-75.
Assay [15] relates to SW-620.
The subject of assay [16] is SNB-19.
The subject of assay [17] is CAKI-1.

As to `CC1CC2OC(=O)C3CC(O)CC(=C23)[C@@]12C[C@@H](c1ccoc1)OC2=O` (some centres not stated), the GI50 in [1], in assay [2], in assay [3], in [4], in assay [5] and in assay [6] was > 100 µM (inactive) in each case. For the same molecule, the GI50 in assay [7] was > 100 µM (inactive); in assay [8], > 100 µM (inactive); in assay [9] it was > 100 µM (inactive); in assay [10] it was > 100 µM; in assay [11], > 100 µM (inactive); in assay [12] it was > 100 µM (inactive). Besides, the GI50 in [13], in [14], in assay [15] and in assay [16] was > 100 µM (inactive) throughout.

`CCOc1cccc2nc3cccc(C(=O)NCCN(C)C)c3nc12`: the GI50 in assay [1] is 0.47 µM (active); in assay [2], 1.95 µM (inactive); in assay [3], 0.948 µM (active); in assay [5], 0.506 µM (active); in [6], 1.19 µM (inactive); in [7], 0.867 µM (active). Besides, the GI50 in assay [8] is 2.51 µM (inactive); in [9] it was 2.19 µM (inactive); in assay [10] it was 1.08 µM; in assay [17] it was 3.16 µM (inactive); in [11], 2.02 µM (inactive); in [12], 1.27 µM (inactive). The GI50 in [13] was 0.632 µM (active); in assay [14], 1.45 µM (inactive); in assay [15] it was 0.543 µM (active); in assay [16] it was 1.89 µM (inactive).

With `COc1ccc(OC)c(NCC#N)c1`, the GI50 in assay [1], in [2], in assay [3], in assay [4], in [5] and in assay [6] was > 100 µM (inactive) in each case. Moreover, the GI50 in [7] was > 100 µM (inactive); in assay [8], > 100 µM (inactive); in assay [9], > 100 µM (inactive); in [10], > 100 µM; in assay [12] it was > 100 µM (inactive); in [13], > 100 µM (inactive). In addition, the GI50 in assay [14], in assay [15] and in assay [16] was > 100 µM (inactive) each time.

In the case of `C(=N\OCc1ccccc1)/c1ncccc1C1OCCO1`, the GI50 in assay [1], in assay [2], in [4], in assay [6], in [7] and in assay [8] was > 100 µM (inactive) in each case. For the same molecule, the GI50 in assay [9] is > 100 µM (inactive); in assay [10], > 100 µM; in assay [17] it was > 100 µM (inactive); in assay [11], > 100 µM (inactive); in assay [12], > 100 µM (inactive); in assay [13] it was > 100 µM (inactive). Further, the GI50 in [14], in assay [15] and in assay [16] was > 100 µM (inactive) in each case.

Turning to `C[P+]1(c2ccccc2)CCCCC1`, the GI50 in assay [1], in assay [2], in assay [3], in assay [6], in assay [7] and in [8] was > 100 µM (inactive) throughout. The GI50 is > 100 µM (inactive) in assay [9]; > 100 µM in [10]; > 100 µM (inactive) in assay [17]; > 100 µM (inactive) in [11]; > 100 µM (inactive) in assay [12]; > 100 µM (inactive) in assay [13]. Further, the GI50 in assay [14], in [15] and in assay [16] was > 100 µM (inactive) each time.

Regarding `COc1cc2c(c(OC)c1OC)-c1ccc(SC)c(=O)cc1[C@@H](NC(=O)c1ccc(C#N)cc1)CC2`, the GI50 in [1], in [2], in assay [3], in [4], in [5] and in assay [6] was < 0.01 µM (active) each time. The GI50 in assay [7] was < 0.01 µM (active); in assay [8] it was < 0.01 µM (active); in assay [9], < 0.01 µM (active); in assay [10] it was < 0.01 µM; in [11] it was < 0.01 µM (active); in [12], 3.3 µM (inactive). In addition, the GI50 in assay [13] was < 0.01 µM (active); in assay [14], 0.146 µM (active); in assay [15], < 0.01 µM (active); in [16] it was < 0.01 µM (active).

On to `OCC1OC(c2nc(C3=NCCCN3)cs2)C(O)C1O` (configuration not stated), for which the GI50 in [1], in assay [2], in assay [3], in assay [4], in assay [5] and in [6] was > 100 µM (inactive) each time. Further, the GI50 in [7] was > 10 µM (inactive); in assay [8], > 100 µM (inactive); in assay [9], > 100 µM (inactive); in [10] it was > 100 µM; in [17], > 100 µM (inactive); in assay [11] it was > 100 µM (inactive). Moreover, the GI50 in assay [12], in assay [13], in assay [15] and in [16] was > 100 µM (inactive) in each case.

Regarding `COc1ccc(NC(=O)C2C(=O)N(c3ccc(OC)cc3)C(=O)/C2=N\N)cc1` (configuration not stated), the GI50 is 65 µM (inactive) in assay [1]; > 100 µM (inactive) in [2]; > 100 µM (inactive) in assay [4]; > 100 µM (inactive) in assay [7]; > 100 µM (inactive) in [8]; > 100 µM (inactive) in assay [9]. Further, the GI50 was > 100 µM in assay [10]; > 100 µM (inactive) in assay [11]; > 100 µM (inactive) in [12]; > 100 µM (inactive) in assay [13]; > 100 µM (inactive) in [15]; 94.8 µM (inactive) in assay [16].

With `CCOC(=O)C1(Br)C(c2ccccc2)NC(=O)NC1(C)Br` (configuration not stated), the GI50 was 39.8 µM (inactive) in assay [1]; 82 µM (inactive) in assay [2]; 62.2 µM (inactive) in assay [3]; 17.9 µM (inactive) in assay [4]; > 100 µM (inactive) in assay [5]; > 100 µM (inactive) in assay [7]. For the same molecule, the GI50 in [8] was 38.3 µM (inactive); in assay [9] it was > 100 µM (inactive); in assay [10] it was > 100 µM; in assay [17], 18.5 µM (inactive); in assay [11], > 100 µM (inactive); in [12], > 100 µM (inactive). Further, the GI50 in assay [13] was 65.3 µM (inactive); in [14] it was > 100 µM (inactive); in [15] it was 0.332 µM (active); in assay [16], 19 µM (inactive).

Take `CC(C)N(C(=O)C12C3C4C5(C#N)C3C1(C#N)C5C42C#N)C(C)C` (configuration not stated): the GI50 in [1], in [2], in assay [3], in [4], in assay [5] and in assay [6] was > 100 µM (inactive) throughout. The GI50 in [7], in [8], in assay [9], in assay [11], in assay [12] and in [13] was > 100 µM (inactive) each time. The GI50 in assay [14], in assay [15] and in assay [16] was > 100 µM (inactive) each time.

For `CC(=O)OCCOCNC(=S)N/N=C/c1ccc2ccccc2n1`, the GI50 was 53.2 µM (inactive) in assay [1]; 48.9 µM (inactive) in assay [2]; > 100 µM (inactive) in assay [3]; 36.4 µM (inactive) in assay [4]; > 100 µM (inactive) in [5]; 63 µM (inactive) in assay [6]. The GI50 in [7] is 55.7 µM (inactive); in assay [8], 39.4 µM (inactive); in assay [9], 31.2 µM (inactive); in assay [10], 29.8 µM; in [11], 14.3 µM (inactive); in assay [12] it was 69 µM (inactive). Further, the GI50 in [13] is 26.5 µM (inactive); in assay [14], 51.3 µM (inactive); in [15] it was 36.1 µM (inactive); in assay [16], > 100 µM (inactive).

For the molecule `C=CCC1[C@@H](C(C)(C)C(C(C)=O)C(=O)C(=O)OC)OC(C(C)(C)C)N1C(=O)OC` (some centres not stated), the GI50 in [1] was 40.6 µM (inactive); in assay [2], > 100 µM (inactive); in assay [5] it was 52.6 µM (inactive); in assay [6], > 100 µM (inactive); in assay [7], > 100 µM (inactive); in assay [8], > 100 µM (inactive). Besides, the GI50 in [9] was > 100 µM (inactive); in assay [10] it was > 100 µM; in [11] it was 61.5 µM (inactive); in [12], > 100 µM (inactive); in assay [13] it was > 100 µM (inactive); in [14], 80.4 µM (inactive). Further, in assay [16], the GI50 is > 100 µM (inactive).

Consider `CCN1CCC(O)(/C=C/c2ccc(Cl)cc2)C(C(=O)/C=C/c2ccc(Cl)cc2)C1` (configuration not stated), for which the GI50 is 28.1 µM (inactive) in assay [1]; 17.5 µM (inactive) in assay [2]; 2.88 µM (inactive) in assay [3]; 17.5 µM (inactive) in [4]; 20.8 µM (inactive) in assay [5]; 29.6 µM (inactive) in assay [6]. Moreover, the GI50 was 15.2 µM (inactive) in [7]; 20 µM (inactive) in [8]; 31.3 µM (inactive) in assay [9]; 21.7 µM in assay [10]; 30.8 µM (inactive) in assay [11]; 31.1 µM (inactive) in assay [12]. Also, the GI50 was 71.4 µM (inactive) in assay [13], 33.9 µM (inactive) in assay [14], 21.2 µM (inactive) in assay [15] and 71.6 µM (inactive) in assay [16].
